Measured values taken from patent publication US5609897A, “Powdered beverage concentrate or additive fortified with calcium and vitamin D” (priority 1995, dated 1997).
Counter-ions that a name gives are not always drawn. Like-named read-outs stand apart in the source and are kept apart here.

Key:
[1] = cited from earlier work
[2] = humans; cited from earlier work
[3] = rats, 3 weeks, right femur calcium, as compared to a control; cited from earlier work
[4] = without aluminum-containing drugs, normal kidneys; cited from earlier work
[5] = pH 3.5
Procedure: In this evaluation solubility was determined by a visual examination.

yeasts and molds = conditions: pH 4.5 to 3.0; cited from earlier work
[6] = Titratable acidity of calcium sources; assay type: physicochemical; conditions: from pH 3.5 to pH 8.3, 40 g sample
Description: Acidity is desired in the liquid nutritional product of the present invention for several reasons such as: to maintain the calcium salt solubility, to complement flavor, to control microbial growth, and to enhance the role of preservatives, specifically potassium benzoate or sodium benzoate. On the other hand, too much acidity can result in increased tartness and sourness that make the product undesirable from a sensory point of view. […] Titratable acidity is an indication of the total acidity of a beverage.

[7] = piglets; cited from earlier work
[8] = low birth weight infants; cited from earlier work
[9] = cited from earlier work; remark: listed apart in the source

Molecule: O=C(O)O [Calcium Carbonate, calcium carbonate]
- adverse effects of large amounts [1]: constipation and abdominal distention
- Calcium absorption [2]: 29.6%

Molecule: O=C(O)CC(O)(CC(=O)O)C(=O)O [Calcium Citrate, calcium citrate]
- Relative calcium bioavailability [3]: 110%
- Risk of aluminum toxicity [4]: does not pose a risk of aluminum toxicity

Molecule: O=C(O)[C@H](O)[C@@H](O)[C@H](O)[C@H](O)CO [D-Gluconic-Acid, D-gluconic acid (hemicalcium salt)]
- Solubility [5]: soluble
- Solubility over one month [5]: remained soluble at pH 3.5 for at least one month

Molecule: O=P([O-])([O-])[O-].O=P([O-])([O-])[O-].[Ca+2].[Ca+2].[Ca+2] [Tricalcium Phosphate, tricalcium phosphate]
- Relative calcium bioavailability [3]: 110%

Molecule: O=C(O)c1ccccc1 [benzoic acid]
- preservative effect on reducing pH from 4.5 to 3.0 (yeasts and molds): increased by nearly three times

Molecule: Calcium Citrate Malate
- Titratable acidity [6]: 53.2 mL of 0.1N NaOH
- Calcium absorption [2]: 38.3%

Molecule: Calcium Glycerophosphate [CaGP]
- Efficacy as source of calcium in TPN [7]: as effective as calcium gluconate
- Efficacy as source of calcium in TPN [8]: as effective as calcium gluconate
- Titratable acidity [6]: 43.5 mL of 0.1N NaOH

Molecule: vitamin D
- calcium balance and fracture risk ([9]; 600-800 IU/day): improve calcium balance and reduce fracture risk
- risks of excessive doses ([9]; excessive doses): hypercalciuria and hypercalcemia
